Results as given in PubChem BioAssay AID2060910 (Molecular Pharmacology Branch, DTP, NCI, 2025).

Tested on: 242566-281-R-J2-PDC complex spheroid viability
Assay: Anticancer human tumor 242566-281-R-J2-PDC patient-derived pancreatic carcinoma cell line growth inhibition [RAS]
Conditions: for IC50: curve of first compound; for viability, T/C: stronger effect = lower value; active = viability on the fitted dose curve at most 10% of control; inactive = the rest
Summary of the method: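 Agents were tested in combination matrices in half-log decrements from a top concentration at or near clinical Cmax (10 microM if undetermined). Targets were multi-cell spheroids of tumour lines plus HUVEC and MSC stromal cells.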

[1] = second compound 0.0316 µM, first compound 0.0316 µM
[2] = second compound 0.0316 µM, first compound 0.1 µM
[3] = second compound 0.0316 µM, first compound 0.316 µM
[4] = second compound 0.0316 µM, first compound 1 µM
[5] = second compound 0.1 µM, first compound 0.0316 µM
[6] = second compound 0.1 µM, first compound 0.1 µM
[7] = second compound 0.1 µM, first compound 0.316 µM
[8] = second compound 0.1 µM, first compound 1 µM
[9] = second compound 0.316 µM, first compound 0.0316 µM
[10] = second compound 0.316 µM, first compound 0.1 µM
[11] = second compound 0.316 µM, first compound 0.316 µM
[12] = second compound 0.316 µM, first compound 1 µM
[13] = second compound 1 µM, first compound 0.0316 µM
[14] = second compound 1 µM, first compound 0.1 µM
[15] = second compound 1 µM, first compound 0.316 µM
[16] = second compound 1 µM, first compound 1 µM
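Note: spheroids exposed to compound for 7 days before readout.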
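Throughout, for viability, T/C: 100% = DMSO vehicle control wells.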

CC(=O)OC12COC1CC(O)C1(C)C(=O)C(O)C3=C(C)C(OC(=O)C(O)C(NC(=O)OC(C)(C)C)c4ccccc4)CC(O)(C(OC(=O)c4ccccc4)C21)C3(C)C (centres undefined) + C=CC(=O)N1CCN(c2nc(OCC3CCCN3C)nc3c(F)c(-c4nc(N)cc(C)c4C(F)(F)F)c(Cl)cc23)C(C)C1
inactive: viability, T/C (second compound 0.00316 µM, first compound 0.0316 µM) 52.6% | viability, T/C (second compound 0.00316 µM, first compound 0.1 µM) 53.8% | viability, T/C (second compound 0.00316 µM, first compound 0.316 µM) 50.5% | viability, T/C (second compound 0.00316 µM, first compound 1 µM) 35.5% | viability, T/C (second compound 0.00316 µM, first compound 3.16 µM) 54.5% | viability, T/C (second compound 0.00316 µM, first compound 10 µM) 69.3% | viability, T/C (second compound 0.01 µM, first compound 0.0316 µM) 71.5% | viability, T/C (second compound 0.01 µM, first compound 0.1 µM) 53% | viability, T/C (second compound 0.01 µM, first compound 0.316 µM) 42.2% | viability, T/C (second compound 0.01 µM, first compound 1 µM) 41.8% | viability, T/C (second compound 0.01 µM, first compound 3.16 µM) 45.2% | viability, T/C (second compound 0.01 µM, first compound 10 µM) 66.8% | viability, T/C [1] 80.4% | viability, T/C [2] 51.9% | viability, T/C [3] 39.3% | viability, T/C [4] 35.6% | viability, T/C (second compound 0.0316 µM, first compound 3.16 µM) 48.5% | viability, T/C (second compound 0.0316 µM, first compound 10 µM) 66.5% | viability, T/C [5] 61.1% | viability, T/C [6] 51.4% | viability, T/C [7] 47.6% | viability, T/C [8] 37.9% | viability, T/C (second compound 0.1 µM, first compound 3.16 µM) 46.5% | viability, T/C (second compound 0.1 µM, first compound 10 µM) 68.2% | viability, T/C [9] 64.9% | viability, T/C [10] 52.1% | viability, T/C [11] 37% | viability, T/C [12] 49.3% | viability, T/C (second compound 0.316 µM, first compound 3.16 µM) 55.7% | viability, T/C (second compound 0.316 µM, first compound 10 µM) 71.4% | viability, T/C [13] 52.7% | viability, T/C [14] 51.1% | viability, T/C [15] 44.8% | viability, T/C [16] 42.8% | viability, T/C (second compound 1 µM, first compound 3.16 µM) 50.9% | viability, T/C (second compound 1 µM, first compound 10 µM) 65.7%
< 31.6 nM: IC50 (second compound 0.00316 µM) | IC50 (second compound 1 µM)
> 10000 nM: IC50 (second compound 0.1 µM) | IC50 (second compound 0.316 µM)
122 nM: IC50 (second compound 0.0316 µM)
237 nM: IC50 (second compound 0.01 µM)

O=C(c1ccc(F)c(F)c1Nc1ccc(I)cc1F)N1CC(O)([C@@H]2CCCCN2)C1 + C#Cc1c(F)ccc2cc(O)cc(-c3ncc4c(N5CC6CCC(C5)N6)nc(OCC56CCCN5CC(F)C6)nc4c3F)c12
8.45 nM: IC50 (second compound 1 µM)
83.3 nM: IC50 (second compound 0.0316 µM)
56 nM: IC50 (second compound 0.1 µM)
< 3.16 nM: IC50 (second compound 10 µM)
4.18 nM: IC50 (second compound 3.16 µM)
25.2 nM: IC50 (second compound 0.316 µM)
inactive: viability, T/C (second compound 0.0316 µM, first compound 0.00316 µM) 89.3% | viability, T/C (second compound 0.0316 µM, first compound 0.01 µM) 90.4% | viability, T/C [1] 69.1% | viability, T/C [2] 47.9% | viability, T/C [3] 38.6% | viability, T/C [4] 44.2% | viability, T/C (second compound 0.1 µM, first compound 0.00316 µM) 76.1% | viability, T/C (second compound 0.1 µM, first compound 0.01 µM) 73.6% | viability, T/C [5] 57.7% | viability, T/C [6] 42% | viability, T/C [7] 40.9% | viability, T/C [8] 38.5% | viability, T/C (second compound 0.316 µM, first compound 0.00316 µM) 73% | viability, T/C (second compound 0.316 µM, first compound 0.01 µM) 59.7% | viability, T/C [9] 49.9% | viability, T/C [10] 37.3% | viability, T/C [11] 32.2% | viability, T/C [12] 39.9% | viability, T/C (second compound 1 µM, first compound 0.00316 µM) 60.1% | viability, T/C (second compound 1 µM, first compound 0.01 µM) 49.5% | viability, T/C [13] 44.8% | viability, T/C [14] 30.4% | viability, T/C [15] 35.1% | viability, T/C [16] 38.6% | viability, T/C (second compound 3.16 µM, first compound 0.00316 µM) 50.8% | viability, T/C (second compound 3.16 µM, first compound 0.01 µM) 48.6% | viability, T/C (second compound 3.16 µM, first compound 0.0316 µM) 34% | viability, T/C (second compound 3.16 µM, first compound 0.1 µM) 29.4% | viability, T/C (second compound 3.16 µM, first compound 0.316 µM) 34.9% | viability, T/C (second compound 3.16 µM, first compound 1 µM) 38.2% | viability, T/C (second compound 10 µM, first compound 0.00316 µM) 52.6% | viability, T/C (second compound 10 µM, first compound 0.01 µM) 41.3% | viability, T/C (second compound 10 µM, first compound 0.0316 µM) 34.1% | viability, T/C (second compound 10 µM, first compound 0.1 µM) 37% | viability, T/C (second compound 10 µM, first compound 0.316 µM) 36.8% | viability, T/C (second compound 10 µM, first compound 1 µM) 37.5%
